Measured values as given in ChEMBL document CHEMBL3507680, “University of Dundee, Gates Library screen for HepG2 cell viability”.

Test: Human HepG2 cell viability assay in 384 well format
Assay type: toxicity, cell-based
Set-up: dose 125 nL, time 70.5 hour; cytotoxicity at 70.5 h: concentration not given beside the values
Settings: HepG2 cells, read-out: Inhibition

Row | SMILES | cytotoxicity at 70.5 h [%]
1 | O=C(c1cscn1)N1CCc2ncc(Cn3cncn3)n2CC1 | -6.09
2 | O=C(c1ccco1)N1CCn2cc(CN3CCCC3)nc2C1 | -1.74
3 | Cc1ccoc1C(=O)N1CCn2cc(CN3CCCC3)nc2C1 | -4.12
4 | COCCC(=O)N1CC[C@H]2O[C@@H](C)C[C@H]2C1 | -7.16
5 | O=C(c1ccno1)N1CCn2cc(CN3CCCCC3)nc2C1 | -2.37
6 | O=C(c1ccc2[nH]ccc2c1)N1CCn2cc(CN3CCCC3)nc2C1 | -13.7
7 | Cc1cc(N2CCN(C(=O)Cc3ccc4c(c3)OCO4)CC2)cc(C)n1 | -9.94
8 | COCCc1ncc(CN2CCC3(CCCN(CC4CC4)C3)C2)cn1 (configuration not stated) | 0.629
9 | CCCN1C[C@H]2CC[C@@H]1CN(Cc1cccc(O)c1)C2 | -9.57
10 | CNc1ncc(CN(C)C(=O)c2ccc(C3CCCO3)s2)cn1 (configuration not stated) | -3.31
11 | COc1ncccc1C1CC(=O)NCc2nc3ccccn3c21 (configuration not stated) | 1.55
12 | CCN(CC)CCCNc1nccc(-c2cn(C)nc2C)n1 | -3.41
13 | CN(C)c1nc2c(c(N(C)Cc3n[nH]c4c3CCCC4)n1)CCNCC2 | -7.02
14 | Cc1cc2ccccc2n1CCC(=O)NCCCc1nnc(N)s1 | 33.9
15 | Cc1nc[nH]c1CN1CCn2nc(CN3Cc4ccccc4C3)cc2C1 | -7.32
16 | Cc1ccccc1C(C(=O)NCc1nc(-c2ncccn2)no1)N(C)C (configuration not stated) | -6.36
17 | CCN(CC1CCCN(CCc2cccc(OC)c2)C1)C(=O)CSC (configuration not stated) | -8.89
18 | CCc1ccccc1CN1CCn2nc(CNC(C)=O)cc2C1 | 59.7
19 | O=C1CCC2(CCOC2)CN1Cc1nncn1CCc1ccccc1 (configuration not stated) | 4.96
20 | CCN1CCC(CC(=O)NCCc2nc(C)cc(C)n2)CC1 | -3.38
21 | N[C@H]1CN(C(=O)c2ccccc2OCc2ccccc2)C[C@@H]1C1CC1 | -11.7
22 | O=C(NC1CCc2ccccc2C1)C1CCN(Cc2ccco2)CC1 (configuration not stated) | -2.67
23 | Cc1cc(C)cc(CN2CCN(C(=O)C3CCC3)[C@@H]3CS(=O)(=O)C[C@@H]32)c1 | -5.88
24 | O=S(=O)(NCc1ccccc1)Nc1ccc(-n2cncn2)cc1 | -5.87
25 | CCc1nc(CNc2nc3c(s2)c(C)nn3C)cs1 | -3.7
26 | CC(C)=CCN1CCC2(CC1)c1ccccc1[C@@H](N1CCSCC1)[C@@H]2O | -4.97

Row | SMILES | cytotoxicity at 70.5 h [%]
27 | Cc1cc(CN2CCC(CNC(=O)c3noc4c3CCCC4)C2)[nH]n1 (configuration not stated) | 13.3
28 | CCCN1CCN(C(=O)c2cccc(C)n2)[C@H]2CS(=O)(=O)C[C@H]21 | 14.2
29 | CCS(=O)(=O)N1CCOC(CCCc2ccccc2)C1 (configuration not stated) | 5.87
30 | CN1[C@H](CO)C[C@H](CNCc2ccc(CO)o2)[C@@H]1c1ccccc1F | -4.51
31 | NCC1CN(C(=O)c2cccc(-n3cccn3)c2)CCO1 (configuration not stated) | 5.52
32 | O=C(c1cc(-c2ccc(O)cc2)n[nH]1)N1CCCC1c1cccnc1 (configuration not stated) | 0.428
33 | Cc1cnc(C(=O)N2C[C@H]3CC[C@@H]2CN(S(=O)(=O)N(C)C)C3)cn1 | -7.71
34 | CCCn1cc(S(=O)(=O)N[C@H]2CN(C(C)=O)C[C@@H]2C2CC2)cn1 | -1.84
35 | Cc1ccc(C(C(=O)O)N(C)CCCN2CCOCC2)c(C)c1 (configuration not stated) | -8.61
36 | CCC[C@@H]1CN(Cc2ccccc2OC(F)(F)F)C[C@H]1NC(C)=O | -20
37 | CCNC(=O)Cc1ccc(-c2cccc3c2CCNC3)cc1 | -17.3
38 | Cc1nnc(SCCNC(=O)c2cc(S(N)(=O)=O)ccc2F)s1 | -5.1
39 | COCc1ncc(CN2CCC3(CCNCC3)CC2)cn1 | -2.36
40 | CCC1CN(C(=O)c2cc(CN(C)CCc3ccccc3)on2)CCO1 (configuration not stated) | -7.15
41 | CC(C)N(C)S(=O)(=O)c1ccc2c(c1)CCN(C(=O)c1cscn1)C2 | -20.3
42 | O=C(NC1CCCN(c2ncccn2)C1)c1cn2ccccc2n1 (configuration not stated) | -6.6
43 | Cc1ccc2oc(=O)n(CCC(=O)N3CCC4(CN(C)C(=O)O4)C3)c2c1 (configuration not stated) | -1.59
44 | Cc1nn(C)c(C)c1-c1ccnc(N2CCCN(CC(C)C)CC2)n1 | 4.01
45 | Cc1nn(C(C)C)c(C)c1CN1CCC(c2cc(C(C)C)n[nH]2)CC1 | -0.772
46 | CCn1ccnc1CN1CCCn2nc(CNC(=O)C3CCC3)cc2C1 | -7.76
47 | Cc1ccncc1C(=O)N1C[C@@H]2CN(c3ncccn3)C[C@]2(C(=O)O)C1 | -5.72
48 | O=C(Cn1ncc(N2CCNCC2)cc1=O)NCCc1ccc(F)cc1 | -3.8
49 | O=C(N1CCOCC1)N1C[C@H]2CC[C@@H]1CN(C1Cc3ccccc3C1)C2 | 5.2
50 | O=C1CN(C(=O)CC2C(=O)NCCN2CC2CCCCC2)CCN1 (configuration not stated) | 28.9
51 | Cc1nc(CN(C)C(=O)c2cccc(CC3CCNCC3)c2)no1 | 26.4
52 | CCCS(=O)(=O)N1CCC2(CCC(=O)N(CCc3ccncc3)C2)CC1 | -9.81

Row | SMILES | cytotoxicity at 70.5 h [%]
53 | CCN1CCC(c2nnc(CN3CCCC3)n2C2CC2)CC1 | -9.82
54 | COCc1cc(CNC(=O)c2c(O)cccc2O)n[nH]1 | -1.82
55 | CC(=O)N1CC2(CCN(c3ccc4ccccc4n3)CC2)CC1C(=O)O (configuration not stated) | 4.97
56 | NC(=O)c1cc2c(nc1-c1ccc3c(c1)CCO3)CCC2 | -5.32
57 | O=C(c1cc(=O)n(-c2ccccc2)[nH]1)N1CCOC(C(F)(F)F)C1 (configuration not stated) | 5.57
58 | CN1CCC(Cc2noc(-c3cn(Cc4ccccc4Cl)nn3)n2)CC1 | 0.52
59 | Cc1cc(CN2CCN(CC3CC3)[C@@H]3CS(=O)(=O)C[C@@H]32)ccc1F | 6.58
60 | Cc1cc(C[C@@H]2COC[C@@H]2NC(=O)CCN2Cc3ccccc3C2)on1 | 11.4
61 | c1cc(CN2CCC(Cc3noc(C4CC4)n3)CC2)c2c(c1)OCO2 | 0.325
62 | O=C(COCc1ccccc1)N1CCCC(OCc2cccnc2)C1 (configuration not stated) | 15.5
63 | c1csc(CN2CCCN(c3ccc(Cn4ccnc4)cn3)CC2)c1 | -5.7
64 | CC(C)c1nc(CN(C)C(=O)c2ccc3c(c2)OCC(=O)N3)cs1 | -6.75
65 | CC(C)[C@@H]1CN(c2ncc(F)cn2)C[C@H]1NS(=O)(=O)N(C)C | 15.6
66 | CN1CCC(N(C)CCC(=O)N2CCC(Cc3ccc(F)cc3)CC2)C1 (configuration not stated) | 24.2
67 | Cc1nc(C2CCNCC2)cc(N2CCCC(C(=O)NCCCO)C2)n1 (configuration not stated) | 10.6
68 | COCC(=O)N1CCN(S(=O)(=O)c2cccs2)[C@H]2CS(=O)(=O)C[C@H]21 | -7.15
69 | CSCCc1c(-c2ccccc2)ncn1CC(C)(C)N1CCOCC1 | -11.9
70 | O=C1CCCN1CCC1CCCCN1C(=O)c1ccc(SCCO)cc1 (configuration not stated) | -6.58
71 | COc1ccc(NC(=O)CCC2CCCN(S(=O)(=O)C3CC3)C2)c(C)c1 (configuration not stated) | -6.39
72 | CCN(Cc1ccc(O)c(C(=O)O)c1)CC1CCCO1 (configuration not stated) | 24.1
73 | Cc1ccsc1CN(CCN(C)C)C(=O)c1ccc(C#N)nc1 | -8.67
74 | CCC(=O)N1CCN(C(=O)CCn2cc(Cl)cn2)[C@H]2CS(=O)(=O)C[C@H]21 | -5.55
75 | Cc1cnc(C)c(N2CCN(CCCc3[nH]nc(C)c3C)CC2)n1 | 1.19
76 | CCc1n[nH]c(SCC(=O)N2C[C@@H]3CC[C@H](C2)N(CC=C(C)C)C3)n1 | 0.686
77 | CN(C)[C@@H]1CCN(C(=O)Cc2cccs2)[C@H]1Cc1ccncc1 | -8
